US9968541B2, “Optical treatment methods” (ON Light Sciences Inc., priority 2011, dated 2018)
“Also recorded” adds a separate entry of the source.

Key:
[1] = tested on: cavitation-induced whitening immediately after laser treatment of tattoos; assay: Pilot study: topical perfluorodecalin by cotton swab prior to each laser pass in tattoo removal; assay type: in vivo, patients
Experimental: Results of a pilot study related to the disclosure will be first released publicly in April 2012. The pilot study included tattoo removal with repeated laser exposures in one session, in which the need for 20-minute treatment intervals was eliminated. The pilot study was conducted at the Laser & Skin Surgery Center of New York (New York, N.Y.), under the direction of Roy G. Geronemus MD. […] A treatment delay of twenty minutes for resolution of whitening limited practicality of the technique, requiring up to eighty minutes of treatment time per visit. Medical grade, sterile perfluorodecalin, an inert, non-toxic liquid fluorocarbon with properties including optical clarity and gas-carrying capacity, was evaluated in the pilot study in an effort to speed resolution of cavitation-induced whitening immediately after laser treatment of tattoos. Perfluorodecalin may increase the optical penetration of lasers. The pilot study was performed in consenting patients with unwanted tattoos. Each tattoo was treated in whole or part with topical perfluorodecalin by cotton swab prior to each laser pass. Lasers and settings were selected by a dermatologist. During and after treatments, extent and duration of whitening reaction was assessed as well as appearance of adverse effects, including pigmentary change or scarring. […] In fifteen tattoos, perfluorodecalin was applied prior to each laser pass and the tattoo was treated with three Q-switched ruby laser passes immediately following one another in a single session. In five tattoos, a portion was treated with perfluorodecalin prior to a single pass of Q-switched ruby or Nd:YAG laser. […] After each laser pass, the whitening reaction resolved within five seconds of perfluorodecalin application. All treatments were well-tolerated with local anesthesia.

[2] = cited from earlier work
[3] = as described by Tsai; cited from earlier work

For `FC1(F)C(F)(F)C(F)(F)C2(F)C(F)(F)C(F)(F)C(F)(F)C(F)(F)C2(F)C1(F)F` (stereo not drawn) [perfluorodecalin], the “time for whitening reaction to resolve after perfluorodecalin application” value ([1]; after each laser pass, Q-switched ruby or Nd:YAG laser, topical by cotton swab, patients' tattoos) was “five”, the “adverse effects (including pigmentary change or scarring)” value ([1]; follow-up at 3-6 weeks) was “no adverse effects occurred” and the “healing (amount of blistering, crusting or other changes) compared with previous treatments” value ([1]; subject-reported) was “normal to improved healing”. The “resolution of post-laser whitening” value ([1]; topical application with cotton swab, laser therapy of tattoos) was “effectively resolve whitening in laser therapy within seconds; also recorded: resolves post-laser whitening within seconds”, the “treatment time for multiple passes in a single session” value ([1]; up to four passes in a single session, compared to about 80 minutes with R20) was “about 5 minutes” and the tolerability of treatments ([1]; with local anesthesia, perfluorodecalin prior to each laser pass) was “well-tolerated”. For the same compound, the solubility in water ([2]; as described by Tsai) was “very low solubility in water”, the “thermal stability (stable up to)” value ([2]; generally regarded) was “about 400 °C” and the toxicity [3] was “non-toxic”.
